Assay results as given in patent US20140050669A1, “USE OF RADIOGRAPHIC CONTRAST AGENTS FOR DETECTING DENTAL CARIES” (Creighton University, priority 2011, published 2014).

Key:
[1] = comparison of contrast agents applied in turn to the same tooth cavity, radiographic analysis
Description: A 9M solution of sodium iodide (an ionic contrast agent) and a 76% solution of iopamidol (a non-ionic contrast agent) were administered. Each compound was applied in turn under identical conditions to the same tooth cavity and the tooth was radiographically analyzed as discussed above. After application and testing of each compound, the contrast was washed out from the tooth, and the tooth was tested radiographically to ensure there was no contrast remaining.
A barium sulfate solution comprising 1 gram of barium sulfate in 0.5 ml distilled water was administered. The compound was applied, and the tooth was analyzed and compared to other contrast agents and to the control treated tooth as discussed in Example 4. After application and testing of each compound, the contrast was washed out from the tooth and the tooth was tested radiographically to ensure there was no contrast remaining.

[2] = barium sulfate 96% w/w, radiograph 15 seconds after application
Description: The radiograph was taken 15 seconds after barium sulfate (96% w/w) was applied.

[3] = x-ray contrast imaging of identified dental caries before and after topical intra-oral composition; conditions: 9 M sodium iodide in distilled water
Description: A radiographic contrast imaging analysis using x-ray imaging was performed, comparing the imaging of identified dental caries before and after administration of a topical intra-oral composition comprising sodium iodide and distilled water according to the methods of the current invention. Specifically, an x-ray image of a tooth with identified dental caries was performed, without administering the topical intra-oral composition. This image was used as a control for determining the ability of typical x-ray images to detect dental caries in a patient. Subsequently, the same tooth was administered a composition comprising sodium iodide and distilled water, with the composition having a sodium iodide concentration of 9 molar. After administration of the composition to the tooth, x-ray images were obtained 20 seconds after administration and 16 minutes after administration. Further, an x-ray image of the tooth was taken 14 days after administration of the composition to determine if the composition continued to reside in the dental carious lesion. The images obtained are found in FIG. 1.

[4] = x-ray imaging of cavitated surface versus sound healthy surface; conditions: 9 M sodium iodide solution, x-ray 2 minutes after administration
Description: An experiment was performed to test the ability of the topical intra-oral compositions and methods to differentiate between cavitated surfaces (dental caries) and healthy, sound surfaces. Specifically, an x-ray image of a tooth with an identified cavitated surface on one side of the tooth and a sound surface on the other side was performed, without administering the topical intra-oral composition. This image was used as a control for determining the ability of the topical intra-oral compositions to selectively absorb into cavitated surfaces, rather than sound surfaces. Subsequently, the same tooth was administered a composition comprising sodium iodide and distilled water, with the composition having a sodium iodide concentration of 9 molar. After administration of the composition to the tooth, an x-ray image was obtained 2 minutes after administration. The results are illustrated in FIG. 2.

[5] = x-ray imaging of cavitated lesion versus non-cavitated lesion; conditions: 9 M sodium iodide solution, x-ray 3 minutes after administration
Description: An experiment was performed to test the ability of the topical intra-oral compositions and methods to differentiate between cavitated surfaces (a cavity) requiring treatment and non-cavitated lesions not requiring treatment. Specifically, an x-ray image of a tooth with an identified cavitated surface on the right side of the tooth and a non-cavitated lesion on the other side was performed, without administering the topical intra-oral composition. This image was used as a control for determining the ability of the topical intra-oral compositions to selectively absorb into cavitated lesions, rather than non-cavitated lesions. Subsequently, the same tooth was administered a composition comprising sodium iodide and distilled water, with the composition having a sodium iodide concentration of 9 molar. After administration of the composition to the tooth, an x-ray image was obtained 3 minutes after administration. The results are illustrated in FIG. 3.

With O=S(=O)([O-])[O-].[Ba+2] [barium sulfate] the “radiographic contrast enhancement of tooth cavity” value (from here on “radiographic contrast enhancement”) ([1]; 1 gram of barium sulfate in 0.5 ml distilled water) was “produced radiographic contrast enhancement revealing tooth cavitation” and the “radiographic image of shallow cavity” value [2] was “image showing a shallow cavity”.
With [I-].[Na+] [sodium iodide] the “radiographic image of dental caries versus control image” value ([3]; x-ray 20 seconds after administration) was “enhanced radiographic image of dental caries”, the “radiographic image of dental caries versus control image” value ([3]; x-ray 16 minutes after administration) was “enhanced radiographic image of dental caries” and the “x-ray appearance of composition in the carious lesion” value ([3]; x-ray 14 days after administration) was “altered x-ray appearance”. The “radiographic image of dental caries (cavitated surface)” value ([4]; cavitated surface) was “enhanced radiographic image of dental caries”, the “effect on imaging of sound tooth surfaces” value ([4]; sound surface) was “does not affect the imaging of sound tooth surfaces” and the “radiographic image of cavitated lesion (cavity)” value ([5]; cavitated lesion) was “enhanced radiographic image of a cavitated lesion”. The “effect on imaging of non-cavitated lesions” value ([5]; non-cavitated lesion) was “does not affect the imaging of non-cavitated lesions” and the “radiographic contrast enhancement” value ([1]; 9M solution of sodium iodide) was “produced radiographic contrast enhancement revealing tooth cavitation”.
For C[C@H](O)C(=O)Nc1c(I)c(C(=O)NC(CO)CO)c(I)c(C(=O)NC(CO)CO)c1I [iopamidol], the “radiographic contrast enhancement” value ([1]; 76% solution of iopamidol) was “produced radiographic contrast enhancement revealing tooth cavitation”.
